According to patent US12344587B2, “Synthetic retinoids for use in RAR activation” (UNIVERSITY OF DURHAM, priority 2019, dated 2025):

What was measured:
[1] = tested on: rat mixed primary neuronal/glial cultures; test: Regulation of Alzheimer's disease related genes (qPCR); type: cell-based; conditions: 10 nM retinoid 24 hours after 1 μg/ml lipopolysaccharide 6 hours
Method: To examine the influence retinoids may have on the expression of genes involved in Alzheimer's disease, the expression of a group of Alzheimer's-related genes in rat mixed primary neuronal/glial cultures was assessed following retinoid treatment.
Approximately 300,000 rat neuronal/glial cells were treated first with 1 μg/ml lipopolysaccharide (Sigma-Aldrich) for 6 hours to induce inflammation. Following the induction of inflammation, cells were treated with 10 nM retinoids for 24 hours. […] Following treatment, RNA was extracted from the treated cells for qPCR analysis.
Total RNA was extracted using a Qiagen RNeasy mini kit (CAT # 74104, Qiagen) according to the manufacturer's protocol. Briefly, cell and brain tissue samples were homogenized in 350 μl and 1200 μl of RLT buffer mixed with β-ME (1 ml buffer: 10 μl β-ME ratio) respectively. Then, samples were centrifuged for 3 min at 13,000 rpm. The supernatant was first mixed with 70% ethanol at a 1:1 volume ratio (CAT # E7023, Sigma-Aldrich) before transferring it to a spin column placed in a collection tube. The samples were centrifuged for 1 min at 10,000 rpm to bind RNA to the membrane of the spin column.
For the on-column DNase digestion, the samples in the columns were washed with 350 μl RW1 buffer and centrifuged at 10,000 rpm for 1 min. Then, 80 μl of the DNase mixture (10 μl DNase enzyme with 70 μl RDD buffer; CAT # 79254, Qiagen) was added above each sample. Samples were incubated at room temperature for 15 min before adding 350 μl RW1 buffer. Samples were centrifuged at 10,000 rpm for 1 min.
Afterwards, 500 μl of RPE buffer (mixed with 100% ethanol at 1:4 ratio) was added above the samples. Samples were centrifuged for 1 min at 10,000 rpm (the step was repeated 2 times). The spin columns were centrifuged again at 13,000 rpm for 1 min to dry the membranes. The spin columns were removed from the collection tubes and placed inside another 1.5 ml RNase free collection tubes. The RNA was eluted by adding 30 μl of RNase free water directly to the spin column membrane. The samples were incubated 5 min at room temperature before spinning them for 1 min at 10,000 rpm.
RNA concentration was measured using a NanoDrop™ 2000c spectrophotometer (Thermo Fisher Scientific). The instrument was calibrated using the RNase free water used to elute the RNA as a blank and 2 μl was used of each RNA sample. RNA samples were stored in a −70° C. freezer to minimize RNA degradation.
qPCR reactions were performed using PerfeCTa SYBR Green SuperMix (CAT # 733-1246, VWR). 10 μl of reaction mix was added to each well of a 384-well plate (CAT # 04729749001, Roche) in triplicate. Each reaction contained 2 μl of 4 times diluted cDNA template, 5 μl 2×SYBR green mix and 250 nM primers.
Primers were designed using Primer-BLAST with melting temperatures of about 60° C. Before using them in qPCR, the primers were checked for specificity by PCR and the PCR products were sent for sequencing.
Standard curves (made using 5-fold dilutions of the stock cDNA) and blank controls were run for all sets of primers tested in qPCR. The plates were then sealed and centrifuged briefly to ensure all the reagents were at the base of the wells. The plates were run on a Roche LightCycler 480 that was programmed to hold the plate at 95° C. for 5 min. The qPCR then ran for 45 cycles of 95° C. for 15 seconds (s), 60° C. for 15 s and 72° C. for 15 s. Afterwards, the melting curve was obtained by running the plate at 95° C. for 5 s followed by 58° C. for 1 min.
Results were analysed using the delta delta CT method within the LightCycler 480 1.5 software. The expression of genes of interest was normalized to the appropriate reference gene according to each experiment.

MDR1 = test: MDCK-MDR1 permeability assay; type: in vitro ADME; conditions: dog, pH 7.4, 60 min
Method: Thus, this assay is a valuable in vitro surrogate for blood-brain permeability and CNS exposure
MDCK-MDR1 cells obtained from the NIH (Rockville, MD, USA) are used between passage numbers 6-30. Cells are seeded onto Millipore Multiscreen Transwell plates at 3.4×10^5 cells/cm^2. The cells are cultured in DMEM and media is changed on day 3. On day 4 the permeability study is performed. Cell culture and assay incubations are carried out at 37° C. in an atmosphere of 5% CO2 with a relative humidity of 95%. On the day of the assay, the monolayers are prepared by rinsing both apical and basolateral surfaces twice with Hanks Balanced Salt Solution (HBSS) at the desired pH warmed to 37° C. […] Test compound permeability is assessed in duplicate. […] Test and control compounds are quantified by LC-MS/MS cassette analysis using a 7-point calibration with appropriate dilution of the samples. The starting concentration (C0) is determined from the dosing solution and the experimental recovery calculated from C0 and both apical and basolateral compartment concentrations.
The permeability coefficient (Papp) for each compound is calculated from the following equation: […]
Where dQ/dt is the rate of permeation of the drug across the cells, C0 is the donor compartment concentration at time zero and A is the area of the cell monolayer. […] An efflux ratio (ER) is calculated from mean A-B and B-A data.

Row | Papp at 60 min, 10 μM (MDR1) | efflux ratio at 60 min, 10 μM (MDR1; from mean A-B and B-A data, read-out: ER (efflux ratio)) | Structure (SMILES) | Expression of inflammation genes (Ccl5, TNFα and Nos2) [1] | Expression of neuroprotection genes (Abca1, Abcg1, Igf1 and Igf2) [1] | Expression of non-amyloidogenic pathway genes (Nep, Ide and Adam10) [1]
1 | – | – | CC1(C)CCC(C)(C)c2cc(C#Cc3ccc(C(=O)O)cc3F)ccc21 [DC526, 3-Fluoro-4-[2-(5,5,8,8-tetramethyl-5,6,7,8-tetrahydronaphthalen-2-yl)ethynyl]benzoic acid] | downregulated | upregulated | upregulated
2 | – | – | CC1(C)CCC(C)(C)c2cc(C#Cc3ccc(C(=O)O)nc3)ccc21 [DC528, 5-[2-(5,5,8,8-tetramethyl-5,6,7,8-tetrahydronaphthalen-2-yl)ethynyl]pyridine-2-carboxylic acid] | downregulated | upregulated | upregulated
3 | 34.9 ×10⁻⁶ cm/s | 0.6 | CC1(C)CCC(C)(C)c2nc(C#Cc3ccc(C(=O)O)cc3)cnc21 [DC645, 4-[2-(5,5,8,8-Tetramethyl-5,6,7,8-tetrahydroquinoxalin-2-yl)ethynyl]benzoic acid] | downregulated | upregulated | upregulated
